From article PMC13489962, “Small-molecule modulation of β-arrestins” (Nature, 2026) come the findings set out here.

The structures appear in SMILES notation.

Test [1] relates to βARR2 recruitment to β2V2R. Description: PathHunter βARR2 recruitment to β2V2R in U2OS cells. The test is classed as cell-based. The conditions noted are these: 50 μM (recruitment), 25 μM (internalization); n = 1–2; Reviewer Fig. R2. As to the method:
β-Arrestin recruitment to the agonist-activated receptor (β2V2R) was measured using the DiscoveRx PathHunter β-arrestin assay, which uses enzyme fragment complementation. […] Upon agonist-induced recruitment of βARR2 to β2V2R, the β-gal fragments complement to form a functional enzyme, generating a measurable chemiluminescent signal. The signal intensity correlates directly with the extent of βARR2 recruitment. U2OS cells co-expressing β2V2R and βARR2 were plated at a density of 25,000 cells per well in white, clear-bottom 96-well plates 24 h before treatment. On the day of the experiment, cells were treated with either a single dose (50 μM) or varying concentrations of a specific β-arrestin modulator or vehicle control in Hanks’ balanced salt solution (HBSS) (Sigma-Aldrich) with 20 mM HEPES (pH 7.4) and 0.05% BSA. Cells were incubated at 37 °C, 5% CO2, and about 100% relative humidity for about 30 min, followed by stimulation with either 10 nM Iso or a serial dilution of Iso for 60 min at 37 °C. After agonist stimulation, PathHunter reagents were added, and cells were incubated for another 60 min at ambient temperature. Luminescence signals were measured using a CLARIOstar microplate reader (BMG Labtech).

Another test relates to βarr1/2. Briefly: DSF with IP6 and/or Cmpd-5. The test is classed as binding. As to the method: DSF assay was performed to identify β-arrestin-binding small molecules from the drug-like compound library (DDLC) described above. The screen was conducted using the StepOnePlus Real-Time PCR System (Applied Biosystems) with the fluorescent reporter probe SYPRO Orange (Thermo Fisher Scientific) in a 96-well format. Proteins were buffered in 20 mM HEPES (pH 7.5) with 100 mM NaCl. Small molecules (100 μM) were screened with either βARR1 or βARR2 (5 μM). DMSO was used as a vehicle control, and V2Rpp (50 μM) served as a positive control.
For DSF experiments involving the three positive control ligands (V2Rpp, IP6 and heparin, each at 50 μM) binding to β-arrestins, HEPES buffer was used as the vehicle control. Excitation and emission filters for SYPRO Orange were set to 475 nm and 580 nm, respectively. The temperature was increased by 0.5 °C every 30 s, from 25 °C to 99 °C, with fluorescence readings taken at each interval. Raw DSF data were analysed using Applied Biosystems Protein Thermal Shift Software. Fluorescence intensities were plotted as a function of temperature, and the midpoint of transition, or melting temperature (Tm), was calculated by plotting the first derivative of fluorescence emission as a function of temperature (dF/dT). […]

Consider `C=C1C(=O)[C@]23[C@H](O)[C@H]1CC[C@H]2[C@@]12CO[C@]3(O)[C@@H](O)[C@@H]1C(C)(C)CC[C@@H]2O` [Cmpd-5, (1S,4aR,5S,6S,6aR,9S,11aS,11bS,14R)-1,5,6,14-tetrahydroxy−4,4-dimethyl-8-methylenedecahydro-1H-6,11b-(epoxymethano)-6a,9-methanocyclohepta[a]naphthalen-7(8H)-one], for which the “inhibition across a full Iso dose range, βarr2 recruitment and receptor internalization” value in test [1] was “robust”. Besides, the “effect on IP6-stabilized β-arrestin state by DSF” value in the test with βarr1/2 is recorded as “shifts βarr1/2 away from the IP6-stabilized active state”.
